Earlier results, collected in US10583106B2, “Method of treating cancer by oral administration of acetate composition comprising magnesium acetate, calcium acetate or ethylacetate” (priority 2015, dated 2020).

Tests used:
cultured colon cells = details: Mariadason, 2000; cited from earlier work
[1] = system: polyglutamine induced cell death; details: McCampbell, 2001; cited from earlier work
[2] = system: Fragile X syndrome patients; details: 12 weeks; from ˜50%; cited from earlier work

Row | Structure (SMILES) | number of genes modified relative to TSA (cultured colon cells) | ability to reduce cell death [1] | expression of AR [the mutant protein] [1] | Aberrant Behavior Checklist score [2] [%]
1 | CCCC(=O)[O-].[Na+] [sodium butyrate] | roughly 10 times | reduction in cell death | slightly increased | 
2 | CC[C@H](C)C(=O)O[C@H]1C[C@@H](C)C=C2C=C[C@H](C)[C@H](CC[C@@H]3C[C@@H](O)CC(=O)O3)[C@H]21 [Lovastatin] |  |  |  | ~30
